Assay results from patent US20260138959A1, “QUINAZOLINE DERIVATIVE COMPOUND AND USE THEREOF” (VORONOI INC., priority 2021, published 2026).

Assays:
c-KIT V560G/D816V = experiment: Proliferation inhibitory activity on Ba/F3 cell (CellTiter-Glo, 72 hours), c-KIT V560G/D816V; type: cell-based; conditions: Mus musculus, BaF3, c-KIT V560G/D816V cells, read-out: Cell (nM) c-KIT V560G/D816V (GI50 class)
Procedure, shortened: (§1)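 Ba/F3 lines dependent on the indicated kinase, seeded at 3×10^3 cells/well, treated with 12 three-fold dilutions at 0.00005–10 μM final for 72 h at 37 °C. Viability read by CellTiter-Glo luminescence relative to DMSO vehicle; GI50 derived from curve fit.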

Ba/F3-c-KIT(D816V) = experiment: Proliferation inhibitory activity on Ba/F3 cell (CellTiter-Glo, 72 hours), c-KIT(D816V); type: cell-based; conditions: Mus musculus, BaF3, read-out: Ba/F3 (nM) c-KIT (D816V) (GI50 class)
Procedure, shortened: as §1

Ba/F3-TEL-PDGFRα(WT) = experiment: Proliferation inhibitory activity on Ba/F3 cell (CellTiter-Glo, 72 hours), PDGFR-α; type: cell-based; conditions: Mus musculus, BaF3, read-out: Ba/F3 (nM) Tel-PDGFRα (GI50 class)
Description: (§2) Ba/F3-TEL-PDGFRα(WT), Ba/F3-TEL-PDGFβ(WT), Ba/F3-c-KIT(D816V) (Kyinno, #KC-0138), c-KIT V560G/D816V, c-KIT D814Y were seeded at 3×10^3/100 μl/well in a clear bottom white 96-well plate. A culture solution containing compounds of 12 concentrations (0.00001-2 mM) serially diluted in 3 folds and the DMSO control group was added at 0.5 μl/well each to a final concentration of 0.00005-10 μM, and then incubated in a CO2 incubator at 37° C. for 72 hours. After 72 hours, the plate treated with the compound was taken out, CellTiter-Glo® Assay (Promega) solution was treated with 100 μl/well, followed by mixing well. After mixing well for about 10 minutes at room temperature, […] was measured using a microplate reader. The data were presented as percentages in proportion to treated cells based on the vehicle, GI50 (nM) values were calculated using GraphPad Prism 8.3.0 (GraphPad software Inc., San Diego).
(§3) The inhibitory activities of Ba/F3 expressing PDGFR-α, PDGFR-β, c-KIT(D816V), c-KIT V560G/D816V, and c-KIT D814Y measured as described above were measured and shown in Table 7 below (A: GI50≤200 nM; B: 200 nM<GI50≤500 nM; C: GI50>500 nM).

human PDGFR-α(wt) = target: T1, human PDGFR-α(wt) (Homo sapiens, UniProt P16234); experiment: Enzyme inhibitory activity, ADP-Glo kinase assay, PDGFR-α(wt); type: biochemical; conditions: read-out: PDGFR-α (IC50 class)
T1 construct: purchased Signalchem P12-18G
T1 sequence (P16234 24-1089): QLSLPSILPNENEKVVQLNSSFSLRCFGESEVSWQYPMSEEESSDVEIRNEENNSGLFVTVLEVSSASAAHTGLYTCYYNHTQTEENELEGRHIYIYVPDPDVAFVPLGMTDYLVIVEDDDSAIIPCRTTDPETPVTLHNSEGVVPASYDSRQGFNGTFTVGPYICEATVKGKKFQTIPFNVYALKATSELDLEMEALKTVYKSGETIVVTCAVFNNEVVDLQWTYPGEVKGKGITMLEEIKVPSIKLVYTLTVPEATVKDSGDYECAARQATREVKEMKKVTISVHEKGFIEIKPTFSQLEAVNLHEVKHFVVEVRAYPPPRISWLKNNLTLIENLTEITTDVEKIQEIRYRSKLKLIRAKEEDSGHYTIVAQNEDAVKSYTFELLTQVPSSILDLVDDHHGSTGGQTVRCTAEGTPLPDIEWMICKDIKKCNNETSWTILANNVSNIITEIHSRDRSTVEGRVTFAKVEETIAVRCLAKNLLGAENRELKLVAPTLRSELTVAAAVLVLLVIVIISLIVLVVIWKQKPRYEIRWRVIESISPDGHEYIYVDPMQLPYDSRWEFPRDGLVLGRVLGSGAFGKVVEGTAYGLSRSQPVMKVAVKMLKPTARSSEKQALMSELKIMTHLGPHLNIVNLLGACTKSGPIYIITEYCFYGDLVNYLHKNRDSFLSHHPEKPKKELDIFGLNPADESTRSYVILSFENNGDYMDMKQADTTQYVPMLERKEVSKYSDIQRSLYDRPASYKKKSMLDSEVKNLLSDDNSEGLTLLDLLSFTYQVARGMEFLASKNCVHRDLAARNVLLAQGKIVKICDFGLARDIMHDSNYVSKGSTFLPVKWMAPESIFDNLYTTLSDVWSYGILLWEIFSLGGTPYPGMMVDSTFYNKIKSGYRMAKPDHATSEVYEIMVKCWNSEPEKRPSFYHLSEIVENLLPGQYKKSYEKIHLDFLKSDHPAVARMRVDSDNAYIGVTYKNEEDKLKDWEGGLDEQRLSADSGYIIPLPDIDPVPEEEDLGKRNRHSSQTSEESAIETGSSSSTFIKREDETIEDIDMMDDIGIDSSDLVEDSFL
Description: (§4) In order to evaluate the inhibitory activity of the compounds synthesized according to the above examples on PDGFR-α(wt), PDGFR-β(wt), c-KIT(wt), and c-KIT(D816V) kinases, the following method was performed. The compounds of examples were reacted with purified human PDGFR-α(wt) (Signalchem #P12-18G) enzyme, human PDGFR-β(wt) (Signalchem #P13-11G) enzyme, human c-KIT(wt) (Signalchem #K06-11BG) enzyme, human c-KIT(D816V) (Signalchem #C06-12LG) enzyme, and the enzyme inhibitory abilities were evaluated by the following method.
(§5) The reaction buffer was used as a composition of 40 mM Tris-HCl pH7.4, 20 mM MgCl2, 0.5 mg/ml BSA, 50 μM DTT, and the reactions of all the tests were carried out on the reaction buffer. The compound was diluted in 12 steps using a serial dilution method from a 10 mM DMSO stock, and the enzyme activity was measured at a final compound concentration of 10˜0.00005645 μM. During the test, the enzyme activity was confirmed using in vitro ADP-Glo™ kinase assay (Promega) after reacting with the proper concentration of human PDGFR-α(wt) enzyme, human PDGFR-β(wt), human c-KIT(wt) enzyme, and human c-KIT(D816V) enzyme with purified ATP and enzyme substrate at 25° C. for 1˜2 hours. At a ratio of 2:2:1, an enzyme-active reaction solution, an ADP-Glo reaction solution, and an enzyme-active detection solution were reacted to measure the inhibition of the enzyme's activity with luminoscence. Based on the […] of the enzyme activity of the solvent control that was not treated with the compound, the degree of enzyme activity inhibition was calculated according to the treatment concentration of each compound, and the concentration of each compound that inhibits 50% of enzyme activity was determined as IC50 (nM) value and the value was obtained by using GraphPad Prism 8.3.0 (GraphPad software Inc., San Diego) software. (A: IC50≤50 nM; B: 50 nM<IC50≤100 nM; C: 100 nM<IC50≤500 nM; D: IC50>500 nM).

human PDGFR-β(wt) = target: T2, human PDGFR-β(wt) (Homo sapiens, UniProt P09619); experiment: Enzyme inhibitory activity, ADP-Glo kinase assay, PDGFR-β(wt); type: biochemical; conditions: read-out: PDGFR-β (IC50 class)
T2 construct: purchased Signalchem P13-11G
T2 sequence (P09619 33-1106): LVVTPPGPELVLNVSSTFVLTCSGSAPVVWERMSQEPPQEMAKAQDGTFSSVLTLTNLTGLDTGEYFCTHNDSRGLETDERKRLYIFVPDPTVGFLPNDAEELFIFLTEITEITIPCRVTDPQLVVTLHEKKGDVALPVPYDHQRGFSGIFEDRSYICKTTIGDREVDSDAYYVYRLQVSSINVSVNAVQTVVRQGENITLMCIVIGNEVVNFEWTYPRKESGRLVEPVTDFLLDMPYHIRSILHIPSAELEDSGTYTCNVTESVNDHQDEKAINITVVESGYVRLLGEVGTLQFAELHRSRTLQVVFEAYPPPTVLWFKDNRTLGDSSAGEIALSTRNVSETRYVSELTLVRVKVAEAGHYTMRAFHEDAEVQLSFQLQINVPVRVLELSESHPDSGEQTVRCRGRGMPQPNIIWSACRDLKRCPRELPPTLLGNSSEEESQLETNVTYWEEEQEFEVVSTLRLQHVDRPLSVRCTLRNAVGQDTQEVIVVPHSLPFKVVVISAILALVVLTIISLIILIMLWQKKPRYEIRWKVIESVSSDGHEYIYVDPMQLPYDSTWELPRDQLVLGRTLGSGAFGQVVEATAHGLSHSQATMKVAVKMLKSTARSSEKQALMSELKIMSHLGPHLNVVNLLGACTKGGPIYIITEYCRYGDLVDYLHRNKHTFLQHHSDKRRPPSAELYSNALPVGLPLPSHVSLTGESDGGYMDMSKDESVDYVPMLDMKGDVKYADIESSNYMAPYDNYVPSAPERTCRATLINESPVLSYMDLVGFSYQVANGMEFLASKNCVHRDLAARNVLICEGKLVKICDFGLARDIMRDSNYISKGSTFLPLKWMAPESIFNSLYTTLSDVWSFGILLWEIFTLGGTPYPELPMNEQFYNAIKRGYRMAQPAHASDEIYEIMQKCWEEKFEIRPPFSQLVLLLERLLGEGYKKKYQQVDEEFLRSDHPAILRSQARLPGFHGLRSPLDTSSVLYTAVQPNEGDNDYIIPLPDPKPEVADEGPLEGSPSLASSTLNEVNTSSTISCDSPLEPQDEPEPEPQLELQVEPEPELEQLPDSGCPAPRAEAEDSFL
Description: as §4, §5

Ba/F3-TEL-PDGFβ(WT) = experiment: Proliferation inhibitory activity on Ba/F3 cell (CellTiter-Glo, 72 hours), PDGFR-β; type: cell-based; conditions: Mus musculus, BaF3, read-out: Ba/F3 (nM) Tel-PDGFRβ (GI50 class)
Description: as §2, §3

GI50 (c-KIT V560G/D816V)	GI50 (Ba/F3-c-KIT(D816V))	GI50 (Ba/F3-TEL-PDGFRα(WT))	IC50 (human PDGFR-α(wt))	IC50 (human PDGFR-β(wt))	GI50 (Ba/F3-TEL-PDGFβ(WT))	Structure (SMILES)
> 500 nM	≤ 200 nM	≤ 200 nM	≤ 50 nM	≤ 50 nM	≤ 200 nM	COCCOc1cc2ncnc(-c3ccc(NC(=O)C(C)(N)c4ccc(F)cc4)cc3)c2cc1OCCOC (centres unmarked) [Example 58, 2-amino-N-(4-(6,7-bis(2-methoxyethoxy)quinazolin-4-yl)phenyl)-2-(4-fluorophenyl)propanamide]
≤ 200 nM	≤ 200 nM	≤ 200 nM	≤ 50 nM	≤ 50 nM	≤ 200 nM	CCN1CCC(COc2cc3ncnc(-c4ccc(NC(=O)CCc5ccccc5)cc4)c3cc2OC)CC1 [Example 72, N-(4-(7-((1-ethylpiperidin-4-yl)methoxy)-6-methoxyquinazolin-4-yl)phenyl)-3-phenylpropanamide]
≤ 200 nM	≤ 200 nM	≤ 200 nM	≤ 50 nM	≤ 50 nM	≤ 200 nM	COc1cc2c(-c3ccc(NC(=O)Cc4ccsc4)cc3)ncnc2cc1OCCCN1CCN(C)CC1 [Example 84, N-(4-(6-methoxy-7-(3-(4-methylpiperazin-1-yl)propoxy)quinazolin-4-yl)phenyl)-2-(thiophene-3-yl)acetamide]
200 to 500 nM	≤ 200 nM	≤ 200 nM	≤ 50 nM	≤ 50 nM	≤ 200 nM	COc1cc2c(-c3ccc(NC(=O)Cc4ccc5c(c4)CCO5)cc3)ncnc2cc1OCCCN1CCN(C)CC1 [Example 85, 2-(2,3-dihydrobenzofuran-5-yl)-N-(4-(6-methoxy-7-(3-(4-methylpiperazin-1-yl)propoxy)quinazolin-4-yl)phenyl)acetamide]
≤ 200 nM		≤ 200 nM	≤ 50 nM	≤ 50 nM	≤ 200 nM	COCCN1CCC(COc2cc3ncnc(-c4ccc(NC(=O)C(C)(C)c5ccc(F)cc5)cc4)c3cc2OC)CC1 [Example 89, 2-(4-fluorophenyl)-N-(4-(6-methoxy-7-((1-(2-methoxyethyl)piperidin-4-yl)methoxy)quinazolin-4-yl)phenyl)-2-methylpropanamide]
≤ 200 nM		≤ 200 nM	≤ 50 nM	≤ 50 nM	≤ 200 nM	CCN1CCC(COc2cc3ncnc(-c4ccc(NC(=O)C(C)(C)c5ccc(F)cc5)cc4)c3cc2OC)CC1 [Example 90, N-(4-(7-((1-ethylpiperidin-4-yl)methoxy)-6-methoxyquinazolin-4-yl)phenyl)-2-(4-fluorophenyl)-2-methylpropanamide]
≤ 200 nM				≤ 50 nM	≤ 200 nM	COCCN1CCC(COc2cc3ncnc(-c4ccc(NC(=O)Cc5ccc(Cl)nc5)cc4)c3cc2OC)CC1 [Example 113, 2-(6-chloropyridin-3-yl)-N-(4-(6-methoxy-7-((1-(2-methoxyethyl)piperidin-4-yl)methoxy)quinazolin-4-yl)phenyl)acetamide]
≤ 200 nM				≤ 50 nM	≤ 200 nM	COc1ccc(CC(=O)Nc2ccc(-c3ncnc4cc(OCC5CCN(C(C)C)CC5)c(OC)cc34)cc2)cn1 [Example 116, N-(4-(7-((1-isopropylpiperidin-4-yl)methoxy)-6-methoxyquinazolin-4-yl)phenyl)-2-(6-methoxypyridin-3-yl)acetamide]
≤ 200 nM				≤ 50 nM	≤ 200 nM	COc1cc2c(-c3ccc(NC(=O)Cc4ccc(C(F)(F)F)nc4)cc3)ncnc2cc1OCC1CCN(C(C)C)CC1 [Example 121, N-(4-(7-((1-isopropylpiperidin-4-yl)methoxy)-6-methoxyquinazolin-4-yl)phenyl)-2-(6-(trifluoromethyl)pyridin-3-yl)acetamide]
		≤ 200 nM	≤ 50 nM	100 to 500 nM	≤ 200 nM	COc1cc2ncnc(-c3ccc(NC(=O)Cc4ccc(F)cc4)cc3)c2cc1O [Example 124, 2-(4-fluorophenyl)-N-(4-(6-hydroxy-7-methoxyquinazolin-4-yl)phenyl)acetamide]
≤ 200 nM	≤ 200 nM			≤ 50 nM	≤ 200 nM	COc1cc2c(-c3ccc(NC(=O)Cc4ccc(C(F)(F)F)cc4)cc3)ncnc2cc1OCCCN1CCN(C2CC2)CC1 [Example 142, N-(4-(7-(3-(4-cyclopropylpiperazin-1-yl)propoxy)-6-methoxyquinazolin-4-yl)phenyl)-2-(4-(trifluoromethyl)phenyl)acetamide]
	≤ 200 nM	≤ 200 nM	≤ 50 nM	≤ 50 nM	≤ 200 nM	CCN1CCC(COc2cc3c(-c4ccc(NC(=O)Cc5ccc(C(F)(F)F)cc5)cc4)ncnc3cc2OC)CC1 [Example 147, N-(4-(6-((1-ethylpiperidin-4-yl)methoxy)-7-methoxyquinazolin-4-yl)phenyl)-2-(4-(trifluoromethyl)phenyl)acetamide]
	> 500 nM	≤ 200 nM	≤ 50 nM	≤ 50 nM	≤ 200 nM	CCN1CC2(C1)CN(CCCOc1cc3c(-c4ccc(NC(=O)Cc5ccc(C(F)(F)F)cc5)cc4)ncnc3cc1OC)C2 [Example 149]
	≤ 200 nM	≤ 200 nM	≤ 50 nM	≤ 50 nM	≤ 200 nM	COc1cc2ncnc(-c3ccc(NC(=O)Cc4ccc(C(F)(F)F)cc4)cc3)c2cc1OCCCN1CC2(CCOCC2)C1 [Example 151, N-(4-(6-(3-(7-oxa-2-azaspiro[3.5]nonane-2-yl)propoxy)-7-methoxyquinazolin-4-yl)phenyl)-2-(4-(trifluoromethyl)phenyl)acetamide]
200 to 500 nM	≤ 200 nM			≤ 50 nM	≤ 200 nM	COc1cc2ncnc(-c3ccc(NC(=O)Cc4ccc(C(F)(F)F)cc4)cc3)c2cc1OCCCN1C[C@@H]2C[C@H]1CN2C [Example 158, N-(4-(7-methoxy-6-(3-((1S,4S)-5-methyl-2,5-diazabicyclo[2.2.1]heptane-2-yl)propoxy)quinazolin-4-yl)phenyl)-2-(4-(trifluoromethyl)phenyl)acetamide]
≤ 200 nM	≤ 200 nM			≤ 50 nM	≤ 200 nM	COc1cc2ncnc(-c3ccc(NC(=O)Cc4ccc(C(F)(F)F)cc4)cc3)c2cc1OCCCN1CCN2CCCC2C1 (centres unmarked) [Example 161, N-(4-(6-(3-(hexahydropyrrolo[1,2-a]pyrazin-2(1H)-yl)propoxy)-7-methoxyquinazolin-4-yl)phenyl)-2-(4-(trifluoromethyl)phenyl)acetamide]

Structure (SMILES)	GI50 (c-KIT V560G/D816V)	GI50 (Ba/F3-c-KIT(D816V))	GI50 (Ba/F3-TEL-PDGFRα(WT))	IC50 (human PDGFR-α(wt))	IC50 (human PDGFR-β(wt))	GI50 (Ba/F3-TEL-PDGFβ(WT))
COc1cc2c(-c3ccc(NC(=O)C(C)(N)c4ccc(F)cc4)cc3)ncnc2cc1OCC(C)C (centres unmarked) [Example 10, 2-amino-2-(4-fluorophenyl)-N-(4-(7-isobutoxy-6-methoxyquinazolin-4-yl)phenyl)propanamide]	> 500 nM	≤ 200 nM	≤ 200 nM	≤ 50 nM	100 to 500 nM	200 to 500 nM
